Calls of active or inactive are those of the source. No cut-off for these calls is given here.
How the values were obtained:
P388 = experiment: Cytotoxicity against mouse P388 cells; type: functional, cell-based
Artemia = experiment: Toxicity against brine shrimp larvae; type: organism-based; conditions: in vivo

SMILES	Activity (P388)	Activity (Artemia)
CC(C)[C@H]1CC[C@H]([C@@]2(O)CC[C@H]3[C@@H]4CC[C@H]5CC(=O)C=C[C@]5(C)[C@H]4CC[C@@]32C)[C@H](O)O1 [ANASTOMOSACETAL B]	inactive	Non-toxic
CC(C)[C@H]1CC[C@H]([C@@]2(O)CC[C@H]3[C@@H]4CC[C@H]5CC(=O)CC[C@]5(C)[C@H]4CC[C@@]32C)[C@H](O)O1 [ANASTOMOSACETAL D]	inactive	Non-toxic
CC(C)[C@H]1CC[C@H]([C@@]2(O)CC[C@H]3[C@@H]4CCC5=CC(=O)C=C[C@]5(C)[C@H]4CC[C@@]32C)[C@H](O)O1 [ANASTOMOSACETAL A]	inactive	Non-toxic
CC(C)[C@H]1CC[C@H]([C@@]2(O)CC[C@H]3[C@@H]4CCC5=CC(=O)CC[C@]5(C)[C@H]4CC[C@@]32C)[C@H](O)O1 [ANASTOMOSACETAL C]	inactive	Non-toxic

Source: ChEMBL document CHEMBL1158313, “Isolation of New Steroidal Hemiacetals from the Gorgonian Euplexaura anastomosans” (J Nat Prod, 1996)
